Reference: patent US20260355182A1, “ISOQUINOLINE DERIVATIVE, SYNTHESIS METHOD THEREFOR, AND USE THEREOF” (Harbin Gloria Pharmaceuticals Co., Ltd., priority 2023, published 2026)

Tests used:
SK-N-SH cells = experiment: Dose-effect relationship on cellular ATP levels in cultured SK-N-SH cells; format: cell-based, human
Method: SK-N-SH cells were seeded in a 6-well plate at a density of 6×10^4 per well. Cells were cultured for 12 hours under 5% O2, and the drug was added. Cells were harvested after 48 hours. Cellular ATP levels were measured using a Promega ATP assay kit. The experiment was repeated 5 times to 7 times.

primary mouse neurons = experiment: Cellular status and glucose metabolism-related gene expression in primary mouse neurons; format: cell-based; conditions: normoxic, 72 h, T6 10 PM (so in the source)
Text: In FIG. 10, A) representative bright-field images show the cellular status of primary neurons after treatment. […] The analyzed genes included G6PD, HK2, LDHA, PDK1, PGK1, and SLC2A1/GLUT1. […] TZ treatment produced a similar but generally more moderate metabolic gene-response profile, including increased LDHA, PDK1, and SLC2A1/GLUT1 expression. […] Error bars indicate variation among measurements. […] The results support the use of T6 or related compounds as agents capable of regulating neuronal metabolic status and glucose metabolism-associated pathways.

SKN cells (Pgk1 shRNA) = experiment: Mitochondrial respiration in SKN cells with Pgk1 shRNA (Seahorse); format: cell-based
Method: SKN cells were transduced with Pgk1 shRNA to reduce endogenous Pgk1 expression and were subsequently treated with vehicle control or compound T6. […] GAPDH was used as a loading control; B) mitochondrial respiration was assessed by Seahorse extracellular flux analysis and is expressed as oxygen consumption rate (OCR; pmol/min/10^4 cells). Oligomycin, FCCP, and rotenone plus antimycin were sequentially added to evaluate basal respiration, ATP-linked respiration, maximal respiratory capacity, and non-mitochondrial respiration. […] In contrast, Pgk1 knockdown reduced mitochondrial respiratory activity and diminished the respiration-enhancing effect of T6. […] Data are presented as mean±SD, with individual points representing replicate measurements. Statistical significance is indicated as **P<0.001; ns, not significant. […] The data support Pgk1 as a functional cellular target mediating the metabolic activity of T6.

SOD1G93A transgenic mice = experiment: High-copy-number SOD1G93A ALS model mice, body weight and survival; format: in vivo; conditions: 0.2 mg/kg i.p. once daily from 80 days of age
Method: High-copy-number SOD1G93A transgenic mice, a genetic model of amyotrophic lateral sclerosis (ALS), were treated with compound T6 or vehicle control beginning at 80 days of age. T6 was administered once daily by intraperitoneal injection at 0.2 mg/kg, and control animals received PBS. Disease-associated slowing of movement was observed beginning at approximately 90 days of age. […] The control group included 7 mice, and the T6-treated group included 5 mice. T6 treatment shifted the survival curve to the right, indicating an extension of survival after initiation of treatment (survival analysis, p=0.072).

db/db mice [1] = experiment: Acute glucose-response assay in non-fasted db/db mice; format: in vivo; conditions: s.c., 2 h; TZ 0.5, liraglutide 0.6, T6 0.5 mg/Kg
Method: (§1) The db/db mice were used to evaluate the glucose-lowering activity of compound T6 in comparison with reference metabolic agents (TZ 0.5 mg/Kg, liraglutide 0.6 mg/Kg, T6 0.5 mg/Kg). In FIG. 15, A) for the acute glucose-response assay, drugs were administered to non-fasted db/db mice. Immediately after drug administration (s. c.), mice were deprived of food and water, and blood glucose levels were measured from tail blood samples 2 h later. The relative percentage change in blood glucose was calculated by comparing glucose levels before and after treatment in the same animal. […] HbA1c levels were then measured using a glycated hemoglobin A1c enzyme-linked immunosorbent assay, also referred to as a mouse HbA1c ELISA assay. […] Data are presented as mean±error bars, with individual circles representing individual animals. Statistical significance is indicated as P<0.001 (**) and P<0.0001 (***).

db/db mice [2] = experiment: Chronic treatment assay, HbA1c in db/db mice (ELISA); format: in vivo; conditions: drinking water 2 weeks, particularly T6 1.5 mg/kg, vs untreated control
Method: as §1

Pgk1 = biological target: T1, Pgk1 (Homo sapiens, UniProt P00558); experiment: In vitro biochemical Pgk1 enzymatic activity assay (NADH production); set-up: GAPDH-coupled NADH assay; conditions: role: activator, 1.6 mM GAP, 1 mM β-NAD, 1 mM ADP
T1 sequence (P00558 1-417): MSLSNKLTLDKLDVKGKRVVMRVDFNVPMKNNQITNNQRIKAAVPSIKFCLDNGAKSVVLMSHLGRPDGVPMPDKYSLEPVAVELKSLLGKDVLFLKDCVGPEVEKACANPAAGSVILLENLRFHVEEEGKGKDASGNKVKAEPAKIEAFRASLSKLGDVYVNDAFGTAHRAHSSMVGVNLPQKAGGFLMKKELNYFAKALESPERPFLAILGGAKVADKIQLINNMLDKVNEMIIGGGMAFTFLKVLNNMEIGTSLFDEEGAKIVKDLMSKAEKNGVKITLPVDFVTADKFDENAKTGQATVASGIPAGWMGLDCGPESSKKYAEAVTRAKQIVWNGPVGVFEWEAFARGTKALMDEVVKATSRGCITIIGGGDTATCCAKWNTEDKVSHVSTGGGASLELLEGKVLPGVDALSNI
Method: Human Pgk1 cDNA was cloned into the pEASYTM-E2 vector (TransGen Biotech) containing a His tag. Protein expression was induced in BL21(DE3) chemocompetent cells (TransGen Biotech) with 0.5 mM IPTG. After lysing cells in extraction buffer (20 mM sodium phosphate, 500 mM NaCl, 5 mM imidazole, 5% glycerol, protease inhibitor cocktail, pH 7.9), the supernatant was purified with nickel beads (AdarBiotech). The His-tagged Pgk1 was eluted with the elution buffer (20 mM sodium phosphate, 500 mM NaCl, 80 mM imidazole, protease inhibitor cocktail, pH 7.9). The activity of Pgk1 can be measured by monitoring the rate of NADH production, as NADH accumulated as the reaction proceeded. Purified Pgk1-His protein ([…]) was added to the reaction buffer (20 mM Tris, 100 mM NaCl, 2 mM DTT, 0.1 mM MgSO4, 10 mM NaHPO4, pH 8.6), and the substrates (1.6 mM GAP, 1 mM β-NAD, 1 mM ADP, 20 ng/μL GAPDH) was added. […] After reaction for 10 minutes at room temperature, the absorbance wavelength at 339 nm was measured using a microplate reader (Molecular Devices, SpectraMax i3x), and this wavelength corresponds to NADH levels.

Q: What does the source list for Nc1nc(N2CCN(C(=O)[C@H]3CCCO3)CC2)cc2cc3c(cc12)OCC3 [Compound T6]?
A: Inhibition of cell growth (SK-N-SH cells; 50 μM, SK-N-SH cells): a tendency to inhibit cell growth; minimal effective concentration (SK-N-SH cells; Homo sapiens, 48 h, SK-N-SH cells, read-out: Biologically effective concentration): ~10 µM; Optimal dose for cellular ATP levels (SK-N-SH cells; doses 5, 10 and 50 μM, 48 hours, 5% O2): 50 µM; Relative mRNA expression of G6PD (primary mouse neurons; control = 1.0): increased; Neuronal cellular morphology/status (primary mouse neurons; TZ 10 μM): detectable changes in neuronal cellular morphology/status; Relative mRNA expression of HK2 (primary mouse neurons; TZ 10 μM, control = 1.0): not increased; Relative mRNA expression of LDHA (primary mouse neurons; TZ 10 μM, control = 1.0): increased; Relative mRNA expression of PDK1 (primary mouse neurons; TZ 10 μM, control = 1.0): increased; Relative mRNA expression of PGK1 (primary mouse neurons; TZ 10 μM, control = 1.0): only modestly changed; Relative mRNA expression of SLC2A1/GLUT1 (primary mouse neurons; TZ 10 μM, control = 1.0): increased; Basal respiration and maximal respiration (OCR), Pgk1 shRNA cells (SKN cells (Pgk1 shRNA); Pgk1 shRNA-expressing SKN cells): no significant increase; Basal respiration and maximal respiration (OCR), control cells (SKN cells (Pgk1 shRNA); control SKN cells): significantly increased both basal respiration and maximal respiration; Survival (SOD1G93A transgenic mice; vs PBS): delayed mortality; Body weight (SOD1G93A transgenic mice; 81 to 123 days of age): maintained body weight more effectively; Acute change in blood glucose (db/db mice [1]): marked reduction in blood glucose; HbA1c level (db/db mice [2]): reduced HbA1c levels; Concentration for best activation of Pgk1 (Pgk1; 20 ng/μL GAPDH, pH 8.6, 10 minutes): 0.1 µM; Inhibition of Pgk1 at the tested concentrations (Pgk1; all tested concentrations): none of the concentrations can inhibit Pgk1
